Results published in patent publication US9833497B2, “Human originated EGF domain proteins and use of the same” (CHENGDU SOURCEBIO LIMITED-LIABILITY COMPANY, priority 2013, dated 2017).

What was measured:
Type in all cases: cell-based
E. coli BL21 = assay: MIC against Gram-negative bacteria: E. coli BL21; settings: 5×10^5 CFU/mL
Summary of the method: (§1)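 LB broth cultures at McFarland 0.5, spun down, resuspended, diluted to 5×10^5 CFU/mL final. Two-fold serial dilutions of purified human EGF domain proteins, triplicate. 37° C, 175 rpm shaking. Endpoint: no visible growth.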

Proteus vulgaris = assay: MIC against Gram-negative bacteria: Proteus vulgaris; settings: 5×10^5 CFU/mL
Summary of the method: as §1

Serratia marcescens = assay: MIC against Gram-negative bacteria: Serratia marcescens; settings: 5×10^5 CFU/mL
Summary of the method: as §1

Moraxella catarrhalis = assay: MIC against Gram-negative bacteria: Moraxella catarrhalis; settings: 5×10^5 CFU/mL
Summary of the method: as §1

Klebsiella pneumonia = assay: MIC against Gram-negative bacteria: Klebsiella pneumonia; settings: 5×10^5 CFU/mL
Summary of the method: as §1

Aeromonas hydrophila = assay: MIC against Gram-negative bacteria: Aeromonas hydrophila; settings: 5×10^5 CFU/mL
Summary of the method: as §1

Enterobacter cloacae = assay: MIC against Gram-negative bacteria: Enterobacter cloacae; settings: 5×10^5 CFU/mL
Summary of the method: as §1

Citrobacter diversus = assay: MIC against Gram-negative bacteria: Citrobacter diversus; settings: 5×10^5 CFU/mL
Summary of the method: as §1

E. coli DH5α = assay: Antibacterial activity: MIC and growth curve against E. coli DH5α in 96-well plate; settings: minimal inhibitory concentration against E. coli DH5α; 96-well plate, 5×10^5 CFU/mL, 37° C., judged after 8 h
Summary of the method: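 Log-phase bacteria (OD600 ~0.5) resuspended in LB at 5×10^5 CFU/mL, exposed to recombinant protein at 50, 25, 12.5 μg/mL final in triplicate, 37 °C shaking at 175 rpm. OD600 read every 30 min; MIC is lowest concentration showing no growth.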

Proteus mirabilis = assay: MIC against Gram-negative bacteria: Proteus mirabilis; settings: 5×10^5 CFU/mL
Summary of the method: as §1

Pseudomonas aeruginosa = assay: MIC against Gram-negative bacteria: Pseudomonas aeruginosa; settings: 5×10^5 CFU/mL
Summary of the method: as §1

[1] = E. coli BL21, 10 h cultivation at 37° C.
[2] = Proteus vulgaris, 10 h cultivation at 37° C.
[3] = Serratia marcescens, 10 h cultivation at 37° C.
[4] = Moraxella catarrhalis, 10 h cultivation at 37° C.
[5] = Klebsiella pneumonia, 10 h cultivation at 37° C.
[6] = Aeromonas hydrophila, 10 h cultivation at 37° C.
[7] = Enterobacter cloacae, 10 h cultivation at 37° C.
[8] = Citrobacter diversus, 10 h cultivation at 37° C.
[9] = Proteus mirabilis, 10 h cultivation at 37° C.
[10] = Pseudomonas aeruginosa, 10 h cultivation at 37° C.
[11] = E. coli BL21, 96-well plate, 37° C., 10 h
[12] = Proteus vulgaris, 96-well plate, 37° C., 10 h
[13] = Serratia marcescens, 96-well plate, 37° C., 10 h
[14] = Moraxella catarrhalis, 96-well plate, 37° C., 10 h
[15] = Klebsiella pneumonia, 96-well plate, 37° C., 10 h
[16] = Aeromonas hydrophila, 96-well plate, 37° C., 10 h
[17] = Enterobacter cloacae, 96-well plate, 37° C., 10 h
[18] = Citrobacter diversus, 96-well plate, 37° C., 10 h
[19] = Proteus mirabilis, 96-well plate, 37° C., 10 h
[20] = Pseudomonas aeruginosa, 96-well plate, 37° C., 10 h
[21] = 10 h cultivation at 37° C., two-fold serial dilution

PRT540 (CVCHGHADACDAKDPTDPFRLQCTCQHNTCGGTCDRCCPGFNQQPWKPATANSANECQS; listed as Homo sapiens)
12.5 µg/mL: MIC against P. vulgaris (Proteus vulgaris; 96-well plate, 37° C., 10 h) | MIC against K. pneumonia (Klebsiella pneumonia; 96-well plate, 37° C., 10 h) | MIC against A. hydrophila (Aeromonas hydrophila; 96-well plate, 37° C., 10 h) | MIC (E. coli DH5α) | MIC against P. aeruginosa (Pseudomonas aeruginosa; 96-well plate, 37° C., 10 h)
25 µg/mL: MIC against C. diversus (Citrobacter diversus; 96-well plate, 37° C., 10 h) | MIC against P. mirabilis (Proteus mirabilis; 96-well plate, 37° C., 10 h)
50 µg/mL: MIC against E. coli BL21 (E. coli BL21; 96-well plate, 37° C., 10 h) | MIC against S. marcescens (Serratia marcescens; 96-well plate, 37° C., 10 h) | MIC against M. catarrhalis (Moraxella catarrhalis; 96-well plate, 37° C., 10 h) | MIC against E. cloacae (Enterobacter cloacae; 96-well plate, 37° C., 10 h)

PRT1351 (TAVCQSPCLNGGKCVRPNRCHCLSSWTGHNCS; listed as Homo sapiens)
25 µg/mL: MIC against E. coli BL21 (E. coli BL21; [1]) | MIC against P. vulgaris (Proteus vulgaris; [2]) | MIC against M. catarrhalis (Moraxella catarrhalis; [4]) | MIC against K. pneumonia (Klebsiella pneumonia; [5]) | MIC (E. coli DH5α)
50 µg/mL: MIC against P. aeruginosa (Pseudomonas aeruginosa; [10])
12.5 µg/mL: MIC against S. marcescens (Serratia marcescens; [3]) | MIC against A. hydrophila (Aeromonas hydrophila; [6]) | MIC against E. cloacae (Enterobacter cloacae; [7]) | MIC against C. diversus (Citrobacter diversus; [8]) | MIC against P. mirabilis (Proteus mirabilis; [9])

PRT129 (CSTYGHLCRNGGRCREKRRGVTCDCAFSAYDGPFC; listed as Homo sapiens)
25 µg/mL: MIC (μg/mL) M. catarrhalis (Moraxella catarrhalis; [14]) | MIC (μg/mL) A. hydrophila (Aeromonas hydrophila; [16]) | MIC (μg/mL) P. mirabilis (Proteus mirabilis; [19])
12.5 µg/mL: MIC (μg/mL) E. coli BL21 (E. coli BL21; [11]) | MIC (μg/mL) P. vulgaris (Proteus vulgaris; [12]) | MIC (μg/mL) S. marcescens (Serratia marcescens; [13]) | MIC (μg/mL) K. pneumonia (Klebsiella pneumonia; [15]) | MIC (μg/mL) C. diversus (Citrobacter diversus; [18])
50 µg/mL: MIC (μg/mL) E. cloacae (Enterobacter cloacae; [17]) | MIC (E. coli DH5α) | MIC (μg/mL) P. aeruginosa (Pseudomonas aeruginosa; [20])

PRT1119 (EVLECASAPCEHNASCLEGLGSFRCLCWPGYSGELCE; listed as Homo sapiens)
100 µg/mL: MIC (E. coli DH5α)
25 µg/mL: MIC E. coli BL21 (E. coli BL21; [21]) | MIC P. vulgaris (Proteus vulgaris; [21]) | MIC M. catarrhalis (Moraxella catarrhalis; [21]) | MIC K. pneumonia (Klebsiella pneumonia; [21]) | MIC A. hydrophila (Aeromonas hydrophila; [21])
12.5 µg/mL: MIC E. cloacae (Enterobacter cloacae; [21]) | MIC P. mirabilis (Proteus mirabilis; [21])
50 µg/mL: MIC S. marcescens (Serratia marcescens; [21]) | MIC C. diversus (Citrobacter diversus; [21]) | MIC P. aeruginosa (Pseudomonas aeruginosa; [21])

PRT1430 (DINECAHADPCFPGSSCINTMPGFHCEACPRGYKGTQVS; listed as Homo sapiens)
25 µg/mL: MIC against S. marcescens (Serratia marcescens; [3]) | MIC against E. cloacae (Enterobacter cloacae; [7]) | MIC against C. diversus (Citrobacter diversus; [8]) | MIC (E. coli DH5α) | MIC against P. mirabilis (Proteus mirabilis; [9]) | MIC against P. aeruginosa (Pseudomonas aeruginosa; [10])
12.5 µg/mL: MIC against E. coli BL21 (E. coli BL21; [1]) | MIC against P. vulgaris (Proteus vulgaris; [2]) | MIC against M. catarrhalis (Moraxella catarrhalis; [4]) | MIC against K. pneumonia (Klebsiella pneumonia; [5]) | MIC against A. hydrophila (Aeromonas hydrophila; [6])

PRT1212 (DIDECSGNPCLHGALCENTHGSYHCNCSHEYRGRHCE; listed as Homo sapiens)
50 µg/mL: MIC against K. pneumonia (Klebsiella pneumonia; [15]) | MIC (E. coli DH5α) | MIC against P. mirabilis (Proteus mirabilis; [19])
12.5 µg/mL: MIC against S. marcescens (Serratia marcescens; [13]) | MIC against C. diversus (Citrobacter diversus; [18]) | MIC against P. aeruginosa (Pseudomonas aeruginosa; [20])
25 µg/mL: MIC against E. coli BL21 (E. coli BL21; [11]) | MIC against P. vulgaris (Proteus vulgaris; [12]) | MIC against M. catarrhalis (Moraxella catarrhalis; [14]) | MIC against A. hydrophila (Aeromonas hydrophila; [16]) | MIC against E. cloacae (Enterobacter cloacae; [17])
